Results: PubChem BioAssay AID1918936 (Molecular Pharmacology Branch, DTP, NCI, 2023)
pIC50: −log10 of the molar value.

System: 349418-098-R-PDC complex spheroid viability
Assay: Anticancer human tumor 349418-098-R-PDC patient-derived lung adenocarcinoma cell line growth inhibition
Settings: for pIC50: curve of first compound; for viability, T/C: stronger effect = lower value
Summary of the method: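 Multicellular complex spheroids of tumor cells with human endothelial cells (HUVEC) and mesenchymal stem cells; the LSD1 inhibitor iadademstat was combined with standard-of-care or investigational agents. Top concentration at or near clinical Cmax, half-log dilutions; final DMSO ≤0.25%.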

[1] = second compound 0.1 µM, first compound 0.000316 µM
[2] = second compound 0.1 µM, first compound 0.001 µM
[3] = second compound 0.1 µM, first compound 0.00316 µM
[4] = second compound 0.1 µM, first compound 0.01 µM
[5] = second compound 0.1 µM, first compound 0.0316 µM
[6] = second compound 0.1 µM, first compound 0.1 µM
[7] = second compound 0.316 µM, first compound 0.000316 µM
[8] = second compound 0.316 µM, first compound 0.001 µM
[9] = second compound 0.316 µM, first compound 0.00316 µM
[10] = second compound 0.316 µM, first compound 0.01 µM
[11] = second compound 0.316 µM, first compound 0.0316 µM
[12] = second compound 0.316 µM, first compound 0.1 µM
[13] = second compound 1 µM, first compound 0.000316 µM
[14] = second compound 1 µM, first compound 0.001 µM
[15] = second compound 1 µM, first compound 0.00316 µM
[16] = second compound 1 µM, first compound 0.01 µM
[17] = second compound 1 µM, first compound 0.0316 µM
[18] = second compound 1 µM, first compound 0.1 µM
[19] = second compound 3.16 µM, first compound 0.000316 µM
[20] = second compound 3.16 µM, first compound 0.001 µM
[21] = second compound 3.16 µM, first compound 0.00316 µM
[22] = second compound 3.16 µM, first compound 0.01 µM
[23] = second compound 3.16 µM, first compound 0.0316 µM
[24] = second compound 3.16 µM, first compound 0.1 µM
[25] = second compound 10 µM, first compound 0.000316 µM
[26] = second compound 10 µM, first compound 0.001 µM
[27] = second compound 10 µM, first compound 0.00316 µM
[28] = second compound 10 µM, first compound 0.01 µM
[29] = second compound 10 µM, first compound 0.0316 µM
[30] = second compound 10 µM, first compound 0.1 µM
[31] = second compound 0.1 µM, first compound 0.00949 µM
[32] = second compound 0.1 µM, first compound 0.03 µM
[33] = second compound 0.1 µM, first compound 0.0949 µM
[34] = second compound 0.1 µM, first compound 0.3 µM
[35] = second compound 0.1 µM, first compound 0.949 µM
[36] = second compound 0.1 µM, first compound 3 µM
[37] = second compound 0.316 µM, first compound 0.00949 µM
[38] = second compound 0.316 µM, first compound 0.03 µM
[39] = second compound 0.316 µM, first compound 0.0949 µM
[40] = second compound 0.316 µM, first compound 0.3 µM
[41] = second compound 0.316 µM, first compound 0.949 µM
[42] = second compound 0.316 µM, first compound 3 µM
[43] = second compound 1 µM, first compound 0.00949 µM
[44] = second compound 1 µM, first compound 0.03 µM
[45] = second compound 1 µM, first compound 0.0949 µM
[46] = second compound 1 µM, first compound 0.3 µM
[47] = second compound 1 µM, first compound 0.949 µM
[48] = second compound 1 µM, first compound 3 µM
[49] = second compound 3.16 µM, first compound 0.00949 µM
[50] = second compound 3.16 µM, first compound 0.03 µM
[51] = second compound 3.16 µM, first compound 0.0949 µM
[52] = second compound 3.16 µM, first compound 0.3 µM
[53] = second compound 3.16 µM, first compound 0.949 µM
[54] = second compound 3.16 µM, first compound 3 µM
[55] = second compound 10 µM, first compound 0.00949 µM
[56] = second compound 10 µM, first compound 0.03 µM
[57] = second compound 10 µM, first compound 0.0949 µM
[58] = second compound 10 µM, first compound 0.3 µM
[59] = second compound 10 µM, first compound 0.949 µM
[60] = second compound 10 µM, first compound 3 µM
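Note: spheroids exposed to agents for seven days before readout.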
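Throughout, for viability, T/C: 100% = DMSO vehicle control wells.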

CC(C)CC(NC(=O)C(Cc1ccccc1)NC(=O)c1cnccn1)B(O)O (stereo not given) + NC1CCC(NC2CC2c2ccccc2)CC1
pIC50 (second compound 0.1 µM): > 9.50
pIC50 (second compound 0.316 µM): > 9.50
pIC50 (second compound 1 µM): > 9.50
pIC50 (second compound 3.16 µM): > 9.50
pIC50 (second compound 10 µM): > 9.50
viability, T/C [1]: 9.12%
viability, T/C [2]: 2.17%
viability, T/C [3]: 1.09%
viability, T/C [4]: 0.81%
viability, T/C [5]: 0.69%
viability, T/C [6]: 0.6%
viability, T/C [7]: 7.64%
viability, T/C [8]: 2.21%
viability, T/C [9]: 1.14%
viability, T/C [10]: 0.67%
viability, T/C [11]: 0.64%
viability, T/C [12]: 0.58%
viability, T/C [13]: 9.06%
viability, T/C [14]: 1.64%
viability, T/C [15]: 0.88%
viability, T/C [16]: 0.64%
viability, T/C [17]: 0.7%
viability, T/C [18]: 0.62%
viability, T/C [19]: 8.64%
viability, T/C [20]: 1.66%
viability, T/C [21]: 0.69%
viability, T/C [22]: 0.63%
viability, T/C [23]: 0.46%
viability, T/C [24]: 0.51%
viability, T/C [25]: 6.88%
viability, T/C [26]: 1.23%
viability, T/C [27]: 0.77%
viability, T/C [28]: 0.45%
viability, T/C [29]: 0.75%
viability, T/C [30]: 0.41%

CC(C)CC(NC(=O)CNC(=O)c1cc(Cl)ccc1Cl)B1OC(=O)CC(CC(=O)O)(C(=O)O)O1 (stereo not given) + NC1CCC(NC2CC2c2ccccc2)CC1
pIC50 (second compound 0.1 µM): 9.21
pIC50 (second compound 0.316 µM): 9.18
pIC50 (second compound 1 µM): 9.17
pIC50 (second compound 3.16 µM): 9.22
pIC50 (second compound 10 µM): 9.22
viability, T/C [1]: 89.2%
viability, T/C [2]: 22%
viability, T/C [3]: 4.81%
viability, T/C [4]: 1.88%
viability, T/C [5]: 1.17%
viability, T/C [6]: 1.44%
viability, T/C [7]: 97.2%
viability, T/C [8]: 23.5%
viability, T/C [9]: 4.46%
viability, T/C [10]: 1.83%
viability, T/C [11]: 1.73%
viability, T/C [12]: 1.09%
viability, T/C [13]: 96.5%
viability, T/C [14]: 26.8%
viability, T/C [15]: 4.37%
viability, T/C [16]: 1.55%
viability, T/C [17]: 1.3%
viability, T/C [18]: 0.81%
viability, T/C [19]: 82.2%
viability, T/C [20]: 23.4%
viability, T/C [21]: 4.76%
viability, T/C [22]: 1.66%
viability, T/C [23]: 1.29%
viability, T/C [24]: 0.98%
viability, T/C [25]: 90.5%
viability, T/C [26]: 18.7%
viability, T/C [27]: 4.32%
viability, T/C [28]: 1.66%
viability, T/C [29]: 1.03%
viability, T/C [30]: 0.65%

COc1cc(Nc2ncc3c(n2)-c2ccc(Cl)cc2C(c2c(F)cccc2OC)=NC3)ccc1C(=O)O + NC1CCC(NC2CC2c2ccccc2)CC1
pIC50 (second compound 0.1 µM): 7.67
pIC50 (second compound 0.316 µM): 7.74
pIC50 (second compound 1 µM): 7.55
pIC50 (second compound 3.16 µM): 7.80
pIC50 (second compound 10 µM): 7.67
viability, T/C [3]: 99.2%
viability, T/C [4]: 64.7%
viability, T/C [5]: 41.8%
viability, T/C [6]: 38.5%
viability, T/C (second compound 0.1 µM, first compound 0.316 µM): 32.1%
viability, T/C (second compound 0.1 µM, first compound 1 µM): 37.4%
viability, T/C [9]: 87.3%
viability, T/C [10]: 63.1%
viability, T/C [11]: 37.7%
viability, T/C [12]: 38.9%
viability, T/C (second compound 0.316 µM, first compound 0.316 µM): 39.7%
viability, T/C (second compound 0.316 µM, first compound 1 µM): 32.5%
viability, T/C [15]: 85%
viability, T/C [16]: 62.8%
viability, T/C [17]: 43.6%
viability, T/C [18]: 47.3%
viability, T/C (second compound 1 µM, first compound 0.316 µM): 40.9%
viability, T/C (second compound 1 µM, first compound 1 µM): 34.5%
viability, T/C [21]: 99.5%
viability, T/C [22]: 58.9%
viability, T/C [23]: 35.6%
viability, T/C [24]: 40.4%
viability, T/C (second compound 3.16 µM, first compound 0.316 µM): 31.9%
viability, T/C (second compound 3.16 µM, first compound 1 µM): 37.7%
viability, T/C [27]: 75.3%
viability, T/C [28]: 54.2%
viability, T/C [29]: 48.2%
viability, T/C [30]: 41.6%
viability, T/C (second compound 10 µM, first compound 0.316 µM): 34%
viability, T/C (second compound 10 µM, first compound 1 µM): 34.7%

Cn1ncnc1C1c2n[nH]c(=O)c3cc(F)cc(c23)NC1c1ccc(F)cc1 (stereo not given) + NC1CCC(NC2CC2c2ccccc2)CC1
pIC50 (second compound 0.1 µM): < 7.00
pIC50 (second compound 0.316 µM): < 7.00
pIC50 (second compound 1 µM): < 7.00
pIC50 (second compound 3.16 µM): < 7.00
pIC50 (second compound 10 µM): < 7.00
viability, T/C [1]: 101%
viability, T/C [2]: 96%
viability, T/C [3]: 94.8%
viability, T/C [4]: 95.3%
viability, T/C [5]: 106%
viability, T/C [6]: 92.5%
viability, T/C [7]: 108%
viability, T/C [8]: 110%
viability, T/C [9]: 116%
viability, T/C [10]: 92.2%
viability, T/C [11]: 97.6%
viability, T/C [12]: 99.5%
viability, T/C [13]: 115%
viability, T/C [14]: 112%
viability, T/C [15]: 96.8%
viability, T/C [16]: 112%
viability, T/C [17]: 111%
viability, T/C [18]: 87%
viability, T/C [19]: 107%
viability, T/C [20]: 101%
viability, T/C [21]: 99.4%
viability, T/C [22]: 98.9%
viability, T/C [23]: 89.7%
viability, T/C [24]: 85.9%
viability, T/C [25]: 94.5%
viability, T/C [26]: 91.2%
viability, T/C [27]: 94.6%
viability, T/C [28]: 86.8%
viability, T/C [29]: 83.7%
viability, T/C [30]: 87.3%

NS(=O)(=O)OCC1CC(n2ccc3c(NC4CCc5ccccc54)ncnc32)CC1O (stereo not given) + NC1CCC(NC2CC2c2ccccc2)CC1
pIC50 (second compound 0.1 µM): 7.17
pIC50 (second compound 0.316 µM): 7.06
pIC50 (second compound 1 µM): 7.03
pIC50 (second compound 3.16 µM): 7.08
pIC50 (second compound 10 µM): 7.18
viability, T/C [31]: 99.3%
viability, T/C [32]: 94.8%
viability, T/C [33]: 30.6%
viability, T/C [34]: 15.2%
viability, T/C [35]: 8.16%
viability, T/C [36]: 4.47%
viability, T/C [37]: 118%
viability, T/C [38]: 100%
viability, T/C [39]: 44.5%
viability, T/C [40]: 16.1%
viability, T/C [41]: 7.56%
viability, T/C [42]: 4.71%
viability, T/C [43]: 111%
viability, T/C [44]: 104%
viability, T/C [45]: 47.1%
viability, T/C [46]: 17.1%
viability, T/C [47]: 6.19%
viability, T/C [48]: 4.32%
viability, T/C [49]: 108%
viability, T/C [50]: 103%
viability, T/C [51]: 40.6%
viability, T/C [52]: 22.6%
viability, T/C [53]: 7.16%
viability, T/C [54]: 4.58%
viability, T/C [55]: 84.9%
viability, T/C [56]: 88.7%
viability, T/C [57]: 33.6%
viability, T/C [58]: 16.6%
viability, T/C [59]: 6.64%
viability, T/C [60]: 4.12%

O=C(C=Cc1cccc(S(=O)(=O)Nc2ccccc2)c1)NO + NC1CCC(NC2CC2c2ccccc2)CC1
pIC50 (second compound 0.1 µM): 7.06
pIC50 (second compound 0.316 µM): 7.02
pIC50 (second compound 1 µM): 6.92
pIC50 (second compound 3.16 µM): 6.95
pIC50 (second compound 10 µM): 7.08
viability, T/C [31]: 100%
viability, T/C [32]: 80.5%
viability, T/C [33]: 48.6%
viability, T/C [34]: 18.1%
viability, T/C [35]: 4.19%
viability, T/C [36]: 1.29%
viability, T/C [37]: 105%
viability, T/C [38]: 80.4%
viability, T/C [39]: 53.1%
viability, T/C [40]: 18.7%
viability, T/C [41]: 3.88%
viability, T/C [42]: 1.5%
viability, T/C [43]: 97.1%
viability, T/C [44]: 85.2%
viability, T/C [45]: 58.5%
viability, T/C [46]: 20.8%
viability, T/C [47]: 3.93%
viability, T/C [48]: 1.07%
viability, T/C [49]: 102%
viability, T/C [50]: 88.3%
viability, T/C [51]: 56.5%
viability, T/C [52]: 17%
viability, T/C [53]: 3.94%
viability, T/C [54]: 0.93%
viability, T/C [55]: 96.4%
viability, T/C [56]: 87.3%
viability, T/C [57]: 44.3%
viability, T/C [58]: 13.2%
viability, T/C [59]: 3.61%
viability, T/C [60]: 0.5%
